Laboratory results reported in patent US20100168216A1, “PROSTAGLANDIN PHARMACEUTICAL COMPOSITIONS” (CTG PHARMA S.R.L., priority 2007, published 2010).

Columns and labels:
[1] = system: Thy-1 mRNA; experiment: Studies on rat retina: NMDA-induced loss of Thy-1 mRNA (neuroprotection); assay type: in vivo, Wistar rats; settings: Thy-1 mRNA levels (relative to rhodopsin), PEG value taken as 100; topical 5 μl of 2% in 50% PEG bilaterally twice a day, 2 days before and 7 days after intravitreal NMDA
Method: The method described by Osborne N. N. et al. (2002) previously reported was used. Briefly, two groups of 16 Wistar rats (200-250 g) received either 5 μl doses of topical test compound (2% in 50% polyethylene glycol-PEG) or 5 μl of vehicle bilaterally twice a day for 2 days. On the third day N-methyl-D-aspartate (NMDA) (5 μl in sterile water) was injected intra-vitreally into a single eye of each animal. The other eye was injected with sterile water. The animals were treated then with test compound or vehicle for 7 days. The Thy-1 antigen is associated with ganglion cells and intraocular injections of NMDA cause a loss of Thy-1 mRNA. The rats were then killed and the retinas removed for mRNA analysis for Thy-1 antigen. Results are expressed as % value to the Thy-1 mRNA levels (relative to rhodopsin) of the treated groups, taking PEG value as 100.

[2] = system: IOP (Intraocular Pressure); experiment: Studies of IOP (intraocular pressure) on rabbit; assay type: in vivo, New Zealand albino rabbits; settings: IOP mmHg as % of PEG value (100); topical application of 2% test compound, measured 60 minutes after
Method: The method by Osborne N. N. et al. (2002) previously reported was used. Briefly, two groups of adult male New Zealand albino rabbits weighing 3-3.5 kg were used in the experiments. IOP was measured using a properly calibrated tonometer immediately after topical application of 1 drop of 0.4% benoxinate hydrochloride. The animals received a topical application of 2% of test compound or PEG and measures taken 60 minutes after. Results are expressed as % value to the IOP mmHg values of the treatment groups, taking PEG value as 100.

O=C(CCCC=CC[C@@H]1[C@@H](CC[C@@H](O)CCc2ccccc2)[C@H](O)C[C@@H]1O)Oc1ccc(-c2cc(=S)ss2)cc1 (stereo in doubt) [Compound Example 2, (5Z)-7-[(1R,2R,3R,5S)-3,5-dihydroxy-2-[(3R)-3-hydroxy-5-phenylpentyl]cyclopentyl]-5-heptenoic acid 4-(3H-1,2-dithiole-3-thione-5-yl)-phenyl ester]
NMDA effects (%) [1]: 52%
IOP values (%) [2]: 85%
